# Assay results: ChEMBL document CHEMBL4024712, “Synthesis, stability and mechanistic studies of potent anticryptococcal hexapeptides” (Eur J Med Chem, 2017); call rule not given here
# Non-standard residues stand in square brackets, D forms with d. Residues, ends and D or L forms follow the SMILES beside them. His(τ-Bzl) = N[C@@H](Cc1cn(Cc2ccccc2)cn1)C(=O)O; Phe(4-NH2) = Nc1ccc(C[C@H](N)C(=O)O)cc1; Phe(4-Me) = Cc1ccc(C[C@H](N)C(=O)O)cc1; 1Nal = N[C@@H](Cc1cccc2ccccc12)C(=O)O; Cha = N[C@@H](CC1CCCCC1)C(=O)O; Phg = N[C@H](C(=O)O)c1ccccc1; dOrn = NCCC[C@@H](N)C(=O)O; Orn = NCCC[C@H](N)C(=O)O; Dab = NCC[C@H](N)C(=O)O
# What was measured:
# Nakaseomyces glabratus = assay: Antifungal activity against Candida glabrata ATCC 90030 after 18 to 24 hrs by Alamar blue assay; format: functional
# Pseudomonas aeruginosa = assay: Anti-bacterial activity against Pseudomonas aeruginosa ATCC 27853 by CLSI method; format: functional
# Pichia kudriavzevii [1] = assay: Fungicidal activity against Candida krusei ATCC 6258 after 18 to 24 hrs by Alamar blue assay; format: functional
# Staphylococcus aureus [2] = assay: Anti-bacterial activity against Staphylococcus aureus ATCC 29213 by CLSI method; format: functional; conditions: Staphylococcus aureus, ATCC 29213; for IC50: read-out: IC50
# Candida albicans [3] = assay: Antifungal activity against Candida albicans ATCC 90028 after 18 to 24 hrs by Alamar blue assay; format: functional; conditions: for MIC: Candida albicans, ATCC 90028
# Pichia kudriavzevii [4] = assay: Antifungal activity against Candida krusei ATCC 6258 after 18 to 24 hrs by Alamar blue assay; format: functional
# Aspergillus fumigatus = assay: Antifungal activity against Aspergillus fumigatus ATCC 90906 after 68 to 72 hrs by Alamar blue assay; format: functional
# Escherichia coli [5] = assay: Anti-bacterial activity against Escherichia coli ATCC 35218 by CLSI method; format: functional
# Staphylococcus aureus [6] = assay: Anti-bacterial activity against methicillin-resistant Staphylococcus aureus ATCC 33591 by CLSI method; format: functional
# [7] = system: Mycobacterium intracellulare; assay: Anti-bacterial activity against Mycobacterium intracellulare ATCC 23068 after 68 to 72 hrs by Alamar blue assay; format: functional, cell-based; conditions: for MIC: Mycobacterium intracellulare, ATCC 23068
# Cryptococcus neoformans [8] = assay: Antifungal activity against Cryptococcus neoformans ATCC 90113 after 68 to 72 hrs by Alamar blue assay; format: functional
# Staphylococcus aureus [9] = assay: Bactericidal activity against Staphylococcus aureus ATCC 29213 by CLSI method; format: functional
# Vero = assay: Cytotoxicity against African green monkey Vero cells up to 10 ug/ml after 48 hrs by neutral red dye based assay; format: cell-based; conditions: chlorocebus sabaeus
# Escherichia coli [10] = assay: Bactericidal activity against Escherichia coli ATCC 35218 by CLSI method; format: functional
# [11] = system: Mycobacterium intracellulare; assay: Bactericidal activity against Mycobacterium intracellulare ATCC 23068 after 68 to 72 hrs by Alamar blue assay; format: functional
# Candida albicans [12] = assay: Fungicidal activity against Candida albicans ATCC 90028 after 18 to 24 hrs by Alamar blue assay; format: functional
# Cryptococcus neoformans [13] = assay: Fungicidal activity against Cryptococcus neoformans ATCC 90113 after 68 to 72 hrs by Alamar blue assay; format: functional
# Staphylococcus aureus [14] = assay: Bactericidal activity against methicillin-resistant Staphylococcus aureus ATCC 33591 by CLSI method; format: functional
# [15] = Staphylococcus aureus, ATCC 33591
# [16] = Pichia kudriavzevii, ATCC 6258, read-out: IC50
# [17] = Escherichia coli, ATCC 35218, read-out: IC50
# [18] = Staphylococcus aureus, ATCC 33591, read-out: IC50
MIC [7] [µg/mL],Compound,IC50 (Nakaseomyces glabratus),IC50 (Pseudomonas aeruginosa),MFC (Pichia kudriavzevii [1]) [µg/mL],MIC (Staphylococcus aureus [2]) [µg/mL],IC50 (Candida albicans [3]),"MIC (Pichia kudriavzevii [4]; Pichia kudriavzevii, ATCC 6258) [µg/mL]",IC50 (Aspergillus fumigatus),"MIC (Escherichia coli [5]; Escherichia coli, ATCC 35218) [µg/mL]",MIC (Staphylococcus aureus [6]; [15]) [µg/mL],MIC (Cryptococcus neoformans [8]) [µg/mL],MBC (Staphylococcus aureus [9]) [µg/mL],Activity (Vero),MBC (Escherichia coli [10]) [µg/mL],MBC [11] [µg/mL],MIC (Candida albicans [3]) [µg/mL],MFC (Cryptococcus neoformans [13]) [µg/mL],MBC (Staphylococcus aureus [14]) [µg/mL],IC50 [7],IC50 (Escherichia coli [5]),other results
,Cc1ccc(C[C@H](NC(=O)[C@@H](Cc2ccccc2)NC(=O)[C@@H](Cc2c[nH]c3ccccc23)NC(=O)[C@@H](N)CCCNC(=N)N)C(=O)N[C@H](Cc2ccccc2)C(=O)N[C@@H](Cc2cn(Cc3ccccc3)cn2)C(N)=O)cc1 (H-R[dW][dF][Phe(4-Me)][dF][His(τ-Bzl)]-NH2),Not Active,Not Active,,,,20,Not Active,10,20,2.5,20,Non-Toxic,20,10,20,2.5,20,,,MFC (Candida albicans [12]): 20 µg/mL
,Cc1ccc(C[C@H](NC(=O)[C@@H](Cc2ccccc2)NC(=O)[C@@H](Cc2c[nH]c3ccccc23)NC(=O)[C@@H](N)CCN)C(=O)N[C@H](Cc2ccccc2)C(=O)N[C@@H](Cc2cn(Cc3ccccc3)cn2)C(N)=O)cc1 (H-[Dab][dW][dF][Phe(4-Me)][dF][His(τ-Bzl)]-NH2),,,,20,,,,,,,20,,,,,1.25,20,,,
,CC[C@H](C)[C@H](NC(=O)[C@H](CC1CCCCC1)NC(=O)[C@H](CC1CCCCC1)NC(=O)[C@@H](N)CCCN)C(=O)N[C@H](Cc1ccccc1)C(=O)N[C@@H](Cc1cn(Cc2ccccc2)cn1)C(N)=O (H-[Orn][Cha][Cha]I[dF][His(τ-Bzl)]-NH2),Not Active,Not Active,20,,Not Active,,Not Active,20,,,,Non-Toxic,20,,,,,Not Active,,
,CC[C@H](C)[C@H](NC(=O)[C@H](CC1CCCCC1)NC(=O)[C@@H](Cc1c[nH]c2ccccc12)NC(=O)[C@@H](N)CCCN)C(=O)N[C@@H](Cc1cccc2ccccc12)C(=O)N[C@@H](Cc1cn(Cc2ccccc2)cn1)C(N)=O (H-[Orn][dW][Cha]I[1Nal][His(τ-Bzl)]-NH2),Not Active,Not Active,,20,Not Active,10,Not Active,,,1.25,20,Non-Toxic,,,,,10,Not Active,Not Active,
20,CC(C)C[C@H](NC(=O)[C@H](CC1CCCCC1)NC(=O)[C@@H](Cc1c[nH]c2ccccc12)NC(=O)[C@@H](N)CCCN)C(=O)N[C@H](Cc1ccccc1)C(=O)N[C@@H](Cc1cn(Cc2ccccc2)cn1)C(N)=O (H-[Orn][dW][Cha]L[dF][His(τ-Bzl)]-NH2),Not Active,Not Active,20,,Not Active,20,Not Active,,,5,20,Non-Toxic,,20,,,,,Not Active,
,NCCC[C@H](N)C(=O)N[C@H](Cc1c[nH]c2ccccc12)C(=O)N[C@@H](CC1CCCCC1)C(=O)N[C@H](C(=O)N[C@H](Cc1ccccc1)C(=O)N[C@@H](Cc1cn(Cc2ccccc2)cn1)C(N)=O)c1ccccc1 (H-[Orn][dW][Cha][Phg][dF][His(τ-Bzl)]-NH2),Not Active,Not Active,10,20,,10,Not Active,,20,,20,Non-Toxic,,10,20,,20,,,
20,CC[C@@H](C)[C@@H](NC(=O)[C@H](CC1CCCCC1)NC(=O)[C@@H](Cc1c[nH]c2ccccc12)NC(=O)[C@@H](N)CCCN)C(=O)N[C@H](Cc1ccccc1)C(=O)N[C@@H](Cc1cn(Cc2ccccc2)cn1)C(N)=O (H-[Orn][dW][Cha][dI][dF][His(τ-Bzl)]-NH2),,,10,20,,10,,20,,,20,,20,20,20,2.5,,,,
20,CC(C)[C@@H](NC(=O)[C@H](CC1CCCCC1)NC(=O)[C@@H](Cc1c[nH]c2ccccc12)NC(=O)[C@@H](N)CCCN)C(=O)N[C@H](Cc1ccccc1)C(=O)N[C@@H](Cc1cn(Cc2ccccc2)cn1)C(N)=O (H-[Orn][dW][Cha][dV][dF][His(τ-Bzl)]-NH2),Not Active,Not Active,20,,,20,Not Active,,,1.25,,Non-Toxic,,,20,,,,Not Active,MFC (Candida albicans [12]): 20 µg/mL
,Cc1ccc(C[C@H](NC(=O)[C@@H](Cc2ccccc2)NC(=O)[C@@H](Cc2c[nH]c3ccccc23)NC(=O)[C@@H](N)CCCN)C(=O)N[C@H](Cc2ccccc2)C(=O)N[C@H](CCCN)C(N)=O)cc1 (H-[Orn][dW][dF][Phe(4-Me)][dF][dOrn]-NH2),Not Active,Not Active,20,,Not Active,20,Not Active,,,1.25,,Non-Toxic,,,,1.25,,Not Active,,IC50 (Staphylococcus aureus [2]): > 20 µg/mL; IC50 (Pichia kudriavzevii [4]; [16]): 9.7 µg/mL; IC50 (Escherichia coli [5]; [17]): > 20 µg/mL; IC50 (Staphylococcus aureus [6]; [18]): > 20 µg/mL; IC50 (Cryptococcus neoformans [8]): 0.67 µg/mL
,Cc1ccc(C[C@H](NC(=O)[C@@H](Cc2ccccc2)NC(=O)[C@@H](Cc2c[nH]c3ccccc23)NC(=O)[C@@H](N)CCCN)C(=O)N[C@H](Cc2ccccc2)C(=O)N[C@H](CCCNC(=N)N)C(N)=O)cc1 (H-[Orn][dW][dF][Phe(4-Me)][dF][dR]-NH2),Not Active,,20,20,Not Active,20,Not Active,10,,1.25,20,Non-Toxic,20,,,1.25,,Not Active,,"IC50 (Pseudomonas aeruginosa; Pseudomonas aeruginosa, ATCC 27853, read-out: IC50): 15.7 µg/mL; IC50 (Staphylococcus aureus [2]): 13.5 µg/mL; IC50 (Pichia kudriavzevii [4]; [16]): 14 µg/mL; IC50 (Escherichia coli [5]; [17]): 4.8 µg/mL; IC50 (Staphylococcus aureus [6]; [18]): > 20 µg/mL; IC50 (Cryptococcus neoformans [8]): 0.83 µg/mL"
,Cc1ccc(C[C@H](NC(=O)[C@@H](Cc2ccccc2)NC(=O)[C@@H](Cc2c[nH]c3ccccc23)NC(=O)[C@@H](N)Cc2ccc(N)cc2)C(=O)N[C@H](Cc2ccccc2)C(=O)N[C@@H](Cc2cn(Cc3ccccc3)cn2)C(N)=O)cc1 (H-[Phe(4-NH2)][dW][dF][Phe(4-Me)][dF][His(τ-Bzl)]-NH2),Not Active,Not Active,,,Not Active,,Not Active,,,,20,Non-Toxic,,,,5,,Not Active,Not Active,IC50 (Pichia kudriavzevii [4]): Not Active; IC50 (Staphylococcus aureus [6]): Not Active
,Cc1ccc(C[C@H](NC(=O)[C@@H](Cc2ccccc2)NC(=O)[C@@H](Cc2c[nH]c3ccccc23)NC(=O)[C@H](N)CCCNC(=N)N)C(=O)N[C@H](Cc2ccccc2)C(=O)N[C@@H](Cc2cn(Cc3ccccc3)cn2)C(N)=O)cc1 (H-[dR][dW][dF][Phe(4-Me)][dF][His(τ-Bzl)]-NH2),Not Active,Not Active,20,20,Not Active,20,Not Active,20,20,,20,Non-Toxic,20,,,2.5,20,Not Active,,

Compound,MIC [7] [µg/mL],IC50 (Nakaseomyces glabratus),IC50 (Pseudomonas aeruginosa),MFC (Pichia kudriavzevii [1]) [µg/mL],MIC (Staphylococcus aureus [2]) [µg/mL],IC50 (Candida albicans [3]),"MIC (Pichia kudriavzevii [4]; Pichia kudriavzevii, ATCC 6258) [µg/mL]",IC50 (Aspergillus fumigatus),"MIC (Escherichia coli [5]; Escherichia coli, ATCC 35218) [µg/mL]",MIC (Staphylococcus aureus [6]; [15]) [µg/mL],MIC (Cryptococcus neoformans [8]) [µg/mL],MBC (Staphylococcus aureus [9]) [µg/mL],Activity (Vero),MBC (Escherichia coli [10]) [µg/mL],MBC [11] [µg/mL],MIC (Candida albicans [3]) [µg/mL],MFC (Cryptococcus neoformans [13]) [µg/mL],MBC (Staphylococcus aureus [14]) [µg/mL],IC50 [7],IC50 (Escherichia coli [5]),other results
Cc1ccc(C[C@H](NC(=O)[C@@H](Cc2ccccc2)NC(=O)[C@@H](Cc2c[nH]c3ccccc23)NC(=O)[C@@H](N)CCCCN)C(=O)N[C@H](Cc2ccccc2)C(=O)N[C@@H](Cc2cn(Cc3ccccc3)cn2)C(N)=O)cc1 (H-K[dW][dF][Phe(4-Me)][dF][His(τ-Bzl)]-NH2),20,Not Active,Not Active,20,20,Not Active,20,Not Active,20,20,2.5,20,Non-Toxic,20,20,,,,,,
